The results in this text go back to patent US10287255B2, “Compounds as histone deacetylase 6 inhibitors and pharmaceutical compositions comprising the same” (CHONG KUN DANG PHARMACEUTICAL CORP., priority 2014, dated 2019).

One test deals with T1, human recombinant HDAC6 (Homo sapiens, UniProt Q9UBN7).
T1 construct: purchased Calbiochem 382180
T1 sequence (Q9UBN7 1-1215): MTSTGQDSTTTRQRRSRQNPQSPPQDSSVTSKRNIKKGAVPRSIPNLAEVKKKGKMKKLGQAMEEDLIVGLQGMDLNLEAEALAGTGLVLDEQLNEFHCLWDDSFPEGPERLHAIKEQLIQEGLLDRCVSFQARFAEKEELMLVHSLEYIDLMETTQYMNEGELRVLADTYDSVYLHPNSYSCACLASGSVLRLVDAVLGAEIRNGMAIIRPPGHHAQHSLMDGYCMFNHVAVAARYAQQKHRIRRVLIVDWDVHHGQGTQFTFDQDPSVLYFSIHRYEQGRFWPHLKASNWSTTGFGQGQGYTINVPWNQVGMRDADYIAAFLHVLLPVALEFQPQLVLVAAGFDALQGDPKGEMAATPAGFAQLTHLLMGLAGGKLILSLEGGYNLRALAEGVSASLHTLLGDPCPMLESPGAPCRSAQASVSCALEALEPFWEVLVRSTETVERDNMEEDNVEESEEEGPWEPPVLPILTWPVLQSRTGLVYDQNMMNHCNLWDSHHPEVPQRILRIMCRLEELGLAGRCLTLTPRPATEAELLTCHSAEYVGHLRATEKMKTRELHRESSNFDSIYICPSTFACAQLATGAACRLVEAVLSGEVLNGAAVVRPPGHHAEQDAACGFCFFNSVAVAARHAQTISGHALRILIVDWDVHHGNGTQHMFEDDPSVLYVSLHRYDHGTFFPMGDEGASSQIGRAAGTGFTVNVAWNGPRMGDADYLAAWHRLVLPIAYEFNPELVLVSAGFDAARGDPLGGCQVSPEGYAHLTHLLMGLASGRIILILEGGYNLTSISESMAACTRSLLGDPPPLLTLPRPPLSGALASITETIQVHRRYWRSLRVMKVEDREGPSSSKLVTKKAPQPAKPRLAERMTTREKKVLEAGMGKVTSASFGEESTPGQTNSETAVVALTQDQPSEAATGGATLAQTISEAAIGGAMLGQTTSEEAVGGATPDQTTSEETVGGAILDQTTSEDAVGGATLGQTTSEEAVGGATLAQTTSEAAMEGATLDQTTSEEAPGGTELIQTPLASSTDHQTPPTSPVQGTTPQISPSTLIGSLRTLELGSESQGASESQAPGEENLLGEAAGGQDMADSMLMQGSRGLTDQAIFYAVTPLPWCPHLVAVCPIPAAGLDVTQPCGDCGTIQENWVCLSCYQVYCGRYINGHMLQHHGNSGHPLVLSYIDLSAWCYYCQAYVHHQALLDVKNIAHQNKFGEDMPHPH
The test can be described thus: HDAC6 enzyme activity inhibition assay (in vitro, fluorimetric). The format is biochemical. As to conditions: for HDAC6 selectivity (fold): HDAC6 selectivity over HDAC1; for pIC50: human recombinant HDAC6, fluorimetric kit, same protocol as HDAC1. In a few lines:
(§1)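 Human recombinant enzyme (0.3 μg for HDAC1) reacted with 10 μM Fluor de Lys-SIRT1 substrate and 5-fold compound dilutions at 30 °C for 60 min, then developer for 30 min. Fluorescence read at Ex 360/Em 460; IC50 calculated. HDAC6 run by the same protocol.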

The next test has as its target T2, human recombinant HDAC1 (Homo sapiens, UniProt Q13547).
T2 construct: purchased Enzo Life Science BML-SE456
Briefly: HDAC1 enzyme activity inhibition assay (in vitro, fluorimetric). The format is biochemical. As to conditions: human recombinant HDAC1, fluorimetric kit, 30° C. 60 minutes. In a few lines: as §1

pIC50: −log10 of the molar value. Bounds are passed on as bounds.

T2 sequence (Q13547 whole entry): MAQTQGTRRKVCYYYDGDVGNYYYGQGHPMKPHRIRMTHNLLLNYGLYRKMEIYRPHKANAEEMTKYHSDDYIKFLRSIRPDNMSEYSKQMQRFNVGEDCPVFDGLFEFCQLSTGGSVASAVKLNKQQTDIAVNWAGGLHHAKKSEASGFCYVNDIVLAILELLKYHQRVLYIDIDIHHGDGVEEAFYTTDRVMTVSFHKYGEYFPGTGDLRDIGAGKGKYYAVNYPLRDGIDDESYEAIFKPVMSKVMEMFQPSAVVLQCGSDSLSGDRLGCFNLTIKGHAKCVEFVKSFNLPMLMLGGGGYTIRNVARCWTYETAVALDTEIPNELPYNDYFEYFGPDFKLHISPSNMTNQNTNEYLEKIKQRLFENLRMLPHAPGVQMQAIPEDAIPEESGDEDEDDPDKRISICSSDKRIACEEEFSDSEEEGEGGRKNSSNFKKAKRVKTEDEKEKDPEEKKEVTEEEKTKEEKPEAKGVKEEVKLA

For orientation: pIC50 means −log10 of the IC50, conventionally taken in molar units. As to `CC(=O)N1CCN(Cc2cccc(C(=O)N3[C@H](C)CN(Cc4ccc(C(=O)NO)cc4)C[C@@H]3C)c2)CC1` [Compound 435, 4-(((3R,5S)-4-(3-((4-acetylpiperazin-1-yl)methyl)benzoyl)-3,5-dimethylpiperazin-1-yl)methyl)-N-hydroxybenzamide], at human recombinant HDAC6, the “HDAC6 selectivity (fold)” value was found to be 57 fold and the pIC50 was 7.05. At human recombinant HDAC1, the pIC50 is 5.29.

For the compound `C[C@@H]1CN(Cc2ccc(C(=O)NO)cc2)C[C@H](C)N1Cc1cccc(CN2CCCCC2)c1` [Compound 382, 4-(((3R,5S)-3,5-dimethyl-4-(3-(piperidin-1-ylmethyl)benzyl)piperazin-1-yl)methyl)-N-hydroxybenzamide], the pIC50 on human recombinant HDAC6 was 7.08; at human recombinant HDAC1 it was less than 5.00.

On to `C[C@@H]1CN(Cc2ccc(C(=O)NO)cc2)C[C@H](C)N1Cc1cccc(CN2CCCC2)c1` [Compound 427, 4-(((3R,5S)-3,5-dimethyl-4-(3-(pyrrolidin-1-ylmethyl)benzyl)piperazin-1-yl)methyl)-N-hydroxybenzamide], for which, on human recombinant HDAC6, the “HDAC6 selectivity (fold)” value is 40 fold and the pIC50 was 6.82. Also, the pIC50 at human recombinant HDAC1 was 5.22.

Take `C[C@@H]1CN(Cc2ccc(C(=O)NO)cc2F)C[C@H](C)N1Cc1ccccc1` [Compound 813, 4-(((3R,5S)-4-benzyl-3,5-dimethylpiperazin-1-yl)methyl)-3-fluoro-N-hydroxybenzamide]: at human recombinant HDAC6, the “HDAC6 selectivity (fold)” value was 1720 fold and the negative-log IC50 (pIC50) was 8.00. Besides, the pIC50 on human recombinant HDAC1 is 4.76.

As to `C[C@@H]1CN(Cc2ccc(C3=CCOCC3)cc2)C[C@H](C)N1Cc1ccc(C(=O)NO)cc1` [Compound 401, 4-(((2S,6R)-4-(4-(3,6-dihydro-2H-pyran-4-yl)benzyl)-2,6-dimethylpiperazin-1-yl)methyl)-N-hydroxybenzamide], the “HDAC6 selectivity (fold)” value at human recombinant HDAC6 amounted to 7 fold. Besides, the figures for the pIC50 on human recombinant HDAC6 and on human recombinant HDAC1 were 6.52 and 5.70, respectively.

For `C[C@@H]1CN(C(=O)N(C)c2ccccc2)C[C@H](C)N1Cc1ccc(C(=O)NO)cc1` [Compound 196, (3R,5S)-4-(4-(hydroxycarbamoyl)benzyl)-N,3,5-trimethyl-N-phenylpiperazine-1-carboxamide], on human recombinant HDAC6, the “HDAC6 selectivity (fold)” value came to 97 fold and the pIC50 was 6.83. The pIC50 on human recombinant HDAC1 was 4.84.

Regarding `C[C@@H]1CN(Cc2ccc(C(=O)NO)cc2)C[C@H](C)N1C(=O)Cc1cccc(F)c1` [Compound 222, 4-(((3R,5S)-4-(2-(3-fluorophenyl)acetyl)-3,5-dimethylpiperazin-1-yl)methyl)-N-hydroxybenzamide], the “HDAC6 selectivity (fold)” value on human recombinant HDAC6 is 16 fold. The pIC50 at human recombinant HDAC6 is 7.00; on human recombinant HDAC1, 5.80.

Turning to `C[C@@H]1CN(C(=O)Cc2cccc(-c3ccncc3)c2)C[C@H](C)N1Cc1ccc(C(=O)NO)cc1` [Compound 251, 4-(((2S,6R)-2,6-dimethyl-4-(2-(3-(pyridin-4-yl)phenyl)acetyl)piperazin-1-yl)methyl)-N-hydroxybenzamide], at human recombinant HDAC6, the “HDAC6 selectivity (fold)” value was 57 fold and the pIC50 was 6.62. Besides, the pIC50 on human recombinant HDAC1 is 4.86.

On to `C[C@@H]1CN(Cc2cccc(-n3cccc3)c2)C[C@H](C)N1Cc1ccc(C(=O)NO)cc1` [Compound 256, 4-(((2S,6R)-4-(3-(1H-pyrrol-1-yl)benzyl)-2,6-dimethylpiperazin-1-yl)methyl)-N-hydroxybenzamide], for which, at human recombinant HDAC6, the “HDAC6 selectivity (fold)” value is on record as 15 fold and the pIC50 was 6.52. Moreover, the negative logarithm of the IC50 (pIC50) at human recombinant HDAC1 was 5.34.

With `C[C@@H]1CN(CCc2ccc(C(=O)NO)cc2)C[C@H](C)N1Cc1ccccc1` [Compound 218, 4-(2-((3R,5S)-4-benzyl-3,5-dimethylpiperazin-1-yl)ethyl)-N-hydroxybenzamide], on human recombinant HDAC6, the “HDAC6 selectivity (fold)” value is given as 15 fold and the pIC50 was 6.13. Moreover, the pIC50 on human recombinant HDAC1 is 4.95.

On to `C[C@@H]1CN(Cc2ccc(C(=O)NO)cc2)C[C@H](C)N1Cc1cccc(CN2CCN(CC(F)(F)F)CC2)c1` [Compound 453, 4-(((3R,5S)-3,5-dimethyl-4-(3-((4-(2,2,2-trifluoroethyl)piperazin-1-yl)methyl)benzyl)piperazin-1-yl)methyl)-N-hydroxybenzamide], for which, at human recombinant HDAC6, the “HDAC6 selectivity (fold)” value is recorded as 154 fold and the pIC50 is 7.11. For the same compound, the negative logarithm of the IC50 (pIC50) on human recombinant HDAC1 was 4.92.

In the case of `C[C@@H]1CN(Cc2ccc(C(=O)NO)cc2)C[C@H](C)N1Cc1cocn1` [Compound 354, 4-(((3R,5S)-3,5-dimethyl-4-(oxazol-4-ylmethyl)piperazin-1-yl)methyl)-N-hydroxybenzamide], at human recombinant HDAC6, the “HDAC6 selectivity (fold)” value is given as greater than 2000 fold and the pIC50 was 8.30. In addition, at human recombinant HDAC1, the pIC50 is less than 5.00.

Turning to `C[C@@H]1CN(Cc2ccc(C(=O)NO)cc2)C[C@H](C)N1Cc1ccccc1CN1CCOCC1` [Compound 457, 4-(((3R,5S)-3,5-dimethyl-4-(2-(morpholinomethyl)benzyl)piperazin-1-yl)methyl)-N-hydroxybenzamide], at human recombinant HDAC6, the “HDAC6 selectivity (fold)” value was determined as 2 fold and the pIC50 was 6.84. For the same compound, the pIC50 at human recombinant HDAC1 is 6.52.

Take `C[C@@H]1CN(Cc2ccc(C(=O)NO)cc2)C[C@H](C)N1C(=O)C1CC1` [Compound 295, 4-(((3R,5S)-4-(cyclopropanecarbonyl)-3,5-dimethylpiperazin-1-yl)methyl)-N-hydroxybenzamide]: on human recombinant HDAC6, the “HDAC6 selectivity (fold)” value worked out at 72 fold and the pIC50 is 7.10. Also, the pIC50 at human recombinant HDAC1 was 5.24.

On to `C[C@@H]1CN(Cc2ccc(C(=O)NO)cc2)C[C@H](C)N1Cc1ccc(CN2CC(F)(F)C2)cc1` [Compound 412, 4-(((3R,5S)-4-(4-((3,3-difluoroazetidin-1-yl)methyl)benzyl)-3,5-dimethylpiperazin-1-yl)methyl)-N-hydroxybenzamide], for which the “HDAC6 selectivity (fold)” value on human recombinant HDAC6 was 36 fold. The pIC50 is 7.49 at human recombinant HDAC6 and 5.96 on human recombinant HDAC1.

For `C[C@@H]1CN(Cc2ccc(C(=O)NO)cc2)C[C@H](C)N1C(=O)c1cccc(CN2CCCCC2)c1` [Compound 424, 4-(((3R,5S)-3,5-dimethyl-4-(3-(piperidin-1-ylmethyl)benzoyl)piperazin-1-yl)methyl)-N-hydroxybenzamide], the “HDAC6 selectivity (fold)” value at human recombinant HDAC6 came to 27 fold. The pIC50 is 7.37 on human recombinant HDAC6 and 5.92 at human recombinant HDAC1.

Consider `C[C@@H]1CN(Cc2ccc(C(=O)NO)cc2)C[C@H](C)N1Cc1cc(F)ccc1F` [Compound 212, 4-(((3R,5S)-4-(2,5-difluorobenzyl)-3,5-dimethylpiperazin-1-yl)methyl)-N-hydroxybenzamide], for which, at human recombinant HDAC6, the “HDAC6 selectivity (fold)” value was greater than 28 fold and the negative-log IC50 (pIC50) was 6.45. For the same compound, on human recombinant HDAC1, the pIC50 is less than 5.00.

For the compound `C[C@@H]1CN(Cc2ccc(C(=O)NO)cc2)C[C@H](C)N1Cc1ccc(CN2CCCCC2)cc1` [Compound 467, 4-(((3R,5S)-3,5-dimethyl-4-(4-(piperidin-1-ylmethyl)benzyl)piperazin-1-yl)methyl)-N-hydroxybenzamide], the “HDAC6 selectivity (fold)” value at human recombinant HDAC6 is on record as greater than 204 fold. Besides, the pIC50 is 7.31 on human recombinant HDAC6 and less than 5.00 on human recombinant HDAC1.

As to `C[C@@H]1CN(C(=O)Nc2cccc(Cl)c2)C[C@H](C)N1Cc1ccc(C(=O)NO)cc1` [Compound 104, (3R,5S)-N-(3-chlorophenyl)-4-(4-(hydroxycarbamoyl)benzyl)-3,5-dimethylpiperazine-1-carboxamide], on human recombinant HDAC6, the “HDAC6 selectivity (fold)” value was determined as 9 fold and the pIC50 is 7.09. For the same compound, at human recombinant HDAC1, the pIC50 is 6.15.

In the case of `C[C@@H]1CN(Cc2ccc(C(=O)NO)cc2)C[C@H](C)N1Cc1ccccc1-c1cccnc1` [Compound 330, 4-(((3R,5S)-3,5-dimethyl-4-(2-(pyridin-3-yl)benzyl)piperazin-1-yl)methyl)-N-hydroxybenzamide], at human recombinant HDAC6, the “HDAC6 selectivity (fold)” value is listed as 749 fold and the pIC50 was 7.62. Further, the pIC50 at human recombinant HDAC1 was 4.74.
